From PMC8795197, “Safety and activity of WX-0593 (Iruplinalkib) in patients with ALK- or ROS1-rearranged advanced non-small cell lung cancer: a phase 1 dose-escalation and dose-expansion trial” (Signal Transduction and Targeted Therapy, 2022)
“Also recorded” adds a separate entry of the source.

Tested on: advanced NSCLC patients with ALK or ROS1 rearrangement
Test: Phase 1 dose-expansion phase: antitumor activity (RECIST 1.1, investigators)
Type: in vivo, human
Details: for objective response rate / intracranial objective response rate: Total; for intracranial objective response rate: Baseline measurable CNS metastasis
From the text: Patients continued treatment until documented disease progression, unacceptable toxicity, withdrawal of consent, the start of a new anticancer treatment, death, loss of follow-up, or end of the study (whichever occurred first). Patients were permitted to continue treatment after progression if they were still experiencing clinical benefit, at the discretion of the investigator. Patients performed imaging evaluation at baseline, with computed tomography or magnetic resonance imaging of the chest, abdomen, pelvis, and brain. In the dose-escalation phase, the first efficacy evaluation was done after 3-week continuous administration of WX-0593 and every 6 weeks thereafter. […] AEs were assessed in all patients throughout this study and graded per the National Cancer Institute Common Terminology Criteria for Adverse Events version 4.03. In the dose-expansion phase, the primary endpoint was ORR assessed by investigators. Other key secondary endpoints included PFS, DCR, time to progression (TTP), DOR, intracranial response, and safety. Additionally, overall survival (OS) was assessed as a prespecified exploratory endpoint. ORR was defined as the proportion of patients who had best overall response, including CR or PR. PFS was calculated from the date of the first dose of WX-0593 to the date of documented disease progression or death (whichever occurred first). DCR was defined as the proportion of patients who had best overall response, including CR, PR, or SD, with a duration of at least 12 weeks. TTP was calculated from the date when the first dose of WX-0593 was given to first documented disease progression. […] OS was calculated from the date when the first dose of WX-0593 was administered to the date of death from any cause. Safety analysis was performed in the SS, which was comprised of all patients treated with one dose of WX-0593 and with safety data recorded. Efficacy analysis was performed in the FAS, which was defined as all patients treated with at least one dose of WX-0593. The PK analysis set included all patients treated with at least one dose of WX-0593 and with at least one evaluable PK sample. […] Descriptive statistics were carried out to summarize patients’ baseline characteristics and safety. […] All time-to-event data (PFS, TTP, DOR, and OS) and their corresponding 95% CIs were estimated by Kaplan–Meier methods. PK parameter analyses were done with Phoenix WinNonlin version 8.0. All other statistical analyses were conducted using SAS version 9.4.

[1] = ROS1-positive patients, 120 mg (n=3)
[2] = ROS1-positive patients, 180 mg (n=6)
[3] = ROS1-positive patients, total (n=9)
[4] = baseline measurable or non-measurable brain metastasis
[5] = baseline measurable or non-measurable brain metastasis (n = 58)
[6] = both crizotinib and other ALK TKIs
[7] = crizotinib as the only ALK TKI treatment

**Q.** `COc1cc(N2CCC3(CCN(C)CC3)CC2)ccc1Nc1ncc(Cl)c(Nc2ccccc2P(C)(C)=O)n1` [WX-0593] was tested. Which “DOR, median (95% CI)” value (ROS1-positive patients, 120 mg) did it give?
**A.** NR (NR, NR)

**Q.** What about the “PFS, median (95% CI)” value (ROS1-positive patients, 120 mg) of the same compound?
**A.** 2.76 (1.35, 2.76) mo

**Q.** And the “TTP, median (95% CI)” value (ROS1-positive patients, 120 mg)?
**A.** 2.76 (1.35, 2.76) mo

**Q.** And the “DCR (95% CI)” value [1]?
**A.** 66.7% (9.4%, 99.2%)

**Q.** What about the “ORR (95% CI)” value [1] of the same compound?
**A.** 0 (0%, 70.8%)

**Q.** And the “PFS, number of events (%)” value [1]?
**A.** 3 (100%)

**Q.** And the “TTP (mo), n (%)” value [1]?
**A.** 3 (100%)

**Q.** What about the “DOR, median (95% CI)” value (ROS1-positive patients, 180 mg) of the same compound?
**A.** NR (NR, NR)

**Q.** What about the “PFS, median (95% CI)” value (ROS1-positive patients, 180 mg) of the same compound?
**A.** NR (1.35, NR)

**Q.** What about the “TTP, median (95% CI)” value (ROS1-positive patients, 180 mg) of the same compound?
**A.** NR (1.35, NR)

**Q.** And the “DCR (95% CI)” value [2]?
**A.** 66.7% (22.3%, 95.7%)

**Q.** What about the “ORR (95% CI)” value [2] of the same compound?
**A.** 66.7% (22.3%, 95.7%)

**Q.** And the “PFS, number of events (%)” value [2]?
**A.** 2 (33.3%)

**Q.** And the “TTP (mo), n (%)” value [2]?
**A.** 2 (33.3%)

**Q.** And the “DOR, median (95% CI)” value (ROS1-positive patients, total)?
**A.** NR (NR, NR)

**Q.** And the “PFS, median (95% CI)” value (ROS1-positive patients, total)?
**A.** 2.76 (1.35, NR) mo

**Q.** What about the “TTP, median (95% CI)” value (ROS1-positive patients, total) of the same compound?
**A.** 2.76 (1.35, NR) mo

**Q.** And the “ORR (95% CI)” value [3]?
**A.** 44.4%

**Q.** What about the “PFS, number of events (%)” value [3] of the same compound?
**A.** 5 (55.6%)

**Q.** What about the “TTP (mo), n (%)” value [3] of the same compound?
**A.** 5 (55.6%)

**Q.** What about the ORR (ROS1-rearranged, crizotinib naive) of the same compound?
**A.** 80.0%

**Q.** And the “median PFS” value (ROS1 rearrangement, crizotinib-naive (n = 5))?
**A.** not reached

**Q.** And the objective response rate (ALK-rearranged patients)?
**A.** 58.2% (53/91, 47.4-68.5%)

**Q.** What about the objective response rate (ALK-rearranged patients, ALK TKI naive) of the same compound?
**A.** 76.3% (29/38, 59.8-88.6%)

**Q.** What about the objective response rate (ALK-rearranged patients, ALK TKI naive, chemotherapy naïve) of the same compound?
**A.** 85.0% (17/20, 62.1-96.8%)

**Q.** And the objective response rate (ALK-rearranged patients, ALK TKI naive, received chemotherapy before)?
**A.** 66.7% (12/18, 41.0-86.7%)

**Q.** And the objective response rate (ALK-rearranged patients, Crizotinib and other ALK TKIs)?
**A.** 40.0% (2/5, 5.3-85.3%)

**Q.** What about the objective response rate (ALK-rearranged patients, Crizotinib only) of the same compound?
**A.** 45.7% (21/46, 30.9-61.0%)

**Q.** And the objective response rate (ALK-rearranged patients, Other ALK TKIs)?
**A.** 50.0% (1/2, 1.3-98.7%)

**Q.** And the objective response rate (Baseline CNS metastasis)?
**A.** 22.4% (13/58, 12.5-35.3%)

**Q.** What about the objective response rate (Baseline CNS metastasis, ALK TKI naive) of the same compound?
**A.** 25.0% (5/20, 8.7-49.1%)

**Q.** What about the objective response rate (Baseline CNS metastasis, Crizotinib only) of the same compound?
**A.** 21.2% (7/33, 9.0-38.9%)

**Q.** And the objective response rate (Baseline CNS metastasis, Radiotherapy before)?
**A.** 10.5% (2/19, 1.3-33.1%)

**Q.** And the objective response rate (Baseline CNS metastasis, Radiotherapy naïve)?
**A.** 28.2% (11/39, 15.0-44.9%)

**Q.** And the “intracranial objective response rate” value?
**A.** 46.7% (7/15, 21.3-73.4%)

**Q.** And the “intracranial objective response rate” value (ALK TKI naive)?
**A.** 50.0% (2/4, 6.8-93.2%)

**Q.** What about the “intracranial objective response rate” value (Crizotinib only) of the same compound?
**A.** 50.0% (5/10, 18.7-81.3%)

**Q.** And the “intracranial objective response rate” value (Radiotherapy before)?
**A.** 28.6% (2/7, 3.7-71.0%)

**Q.** What about the objective response rate (Prior ALK TKI treatment: Crizotinib and other ALK TKI) of the same compound?
**A.** 40.0% (2/5, 5.3-85.3%)

**Q.** And the objective response rate (Prior ALK TKI treatment: Crizotinib only)?
**A.** 42.0% (21/50, 28.2-56.8%)

**Q.** And the objective response rate (ROS1-rearranged patients)?
**A.** 44.4% (4/9, 13.7-78.8%)

**Q.** What about the objective response rate (ROS1-rearranged patients, Crizotinib naive) of the same compound?
**A.** 80.0% (4/5, 28.4-99.5%)

**Q.** And the objective response rate (ROS1-rearranged patients, Received Crizotinib before)?
**A.** 0 (0/4, 0-60.2%)

**Q.** What about the objective response rate (dose expansion phase, Prior ALK TKI treatment: ALK TKI naive) of the same compound?
**A.** 76.2% (32/42, 60.5-87.9%)

**Q.** And the “DOR, median (95% CI)” value (all patients, 120 mg)?
**A.** NR (5.52, NR)

**Q.** And the “PFS, median (95% CI)” value (all patients, 120 mg)?
**A.** NR (6.83, NR)

**Q.** And the “TTP, median (95% CI)” value (all patients, 120 mg)?
**A.** NR (6.87, NR)

**Q.** And the “DCR (95% CI)” value (all patients, 120 mg (n=50))?
**A.** 82.0% (68.6%, 91.4%)

**Q.** What about the “PFS, number of events (%)” value (all patients, 120 mg (n=50)) of the same compound?
**A.** 15 (30.0%)

**Q.** What about the “DOR, median (95% CI)” value (all patients, 180 mg) of the same compound?
**A.** NR (5.49, NR)

**Q.** And the “PFS, median (95% CI)” value (all patients, 180 mg)?
**A.** NR (NR, NR)

**Q.** And the “TTP, median (95% CI)” value (all patients, 180 mg)?
**A.** NR (NR, NR)

**Q.** And the “DCR (95% CI)” value (all patients, 180 mg (n=49))?
**A.** 85.7% (72.8%, 94.1%)

**Q.** And the “PFS, number of events (%)” value (all patients, 180 mg (n=49))?
**A.** 10 (20.4%)

**Q.** What about the “DOR, median (95% CI)” value (all patients, total) of the same compound?
**A.** not reached (NR) (95% CI 5.52 months to NR); also recorded: NR (5.65, NR)

**Q.** And the “PFS, median (95% CI)” value (all patients, total)?
**A.** not reached (95% CI 6.93 months to NR); also recorded: NR (6.93, NR)

**Q.** What about the “TTP, median (95% CI)” value (all patients, total) of the same compound?
**A.** NR (6.93, NR)

**Q.** What about the “intracranial ORR” value (baseline measurable CNS metastasis, radiotherapy before) of the same compound?
**A.** 28.6%

**Q.** And the “intracranial ORR” value (baseline measurable CNS metastasis, radiotherapy naive)?
**A.** 62.5%

**Q.** What about the “intracranial ORR” value (baseline measurable brain metastasis) of the same compound?
**A.** 46.7%

**Q.** What about the “intracranial ORR” value (baseline measurable brain metastasis, ALK TKI naive) of the same compound?
**A.** 50%

**Q.** And the “intracranial ORR” value (baseline measurable brain metastasis, crizotinib before)?
**A.** 50%

**Q.** And the “intracranial ORR” value [4]?
**A.** 22.4%

**Q.** And the “median PFS” value [4]?
**A.** not reached (95% CI 6.90 months to NR)

**Q.** What about the “patients with intracranial PR” value [5] of the same compound?
**A.** 7

**Q.** What about the “patients with intracranial complete remission (CR)” value [5] of the same compound?
**A.** 6

**Q.** What about the DCR [6] of the same compound?
**A.** 100%

**Q.** And the ORR [6]?
**A.** 40.0%

**Q.** What about the “median PFS” value [6] of the same compound?
**A.** not reached

**Q.** What about the DCR [7] of the same compound?
**A.** 76.0%

**Q.** What about the ORR [7] of the same compound?
**A.** 42.0%

**Q.** What about the “median PFS” value (previously only crizotinib) of the same compound?
**A.** 6.83 months
